Measurements: patent publication US6410810B1, “Handling method of (fluoroaryl) borane compound and preparing method of hydrocarbon solution” (Nippon Shokubai Co., Ltd., priority 1997, dated 2002)

Description: The cake is analyzed by ^19F-NMR. More specifically, ^19F-NMR is measured under predetermined conditions using p-fluorotoluene as an internal standard reagent. Then, a peak integral of a fluorine atom of p-fluorotoluene, and a peak integral of fluorine atoms at the ortho-position of a pentafluorophenyl group in tris(pentafluorophenyl)borane are computed from the resulting ^19F-NMR chart first, and thence a weight of tris(pentafluorophenyl)borane is computed using the above two peak integrals.
Here, 0.4963 g (purity: 99%, area ratio) of powders of tris(pentafluorophenyl)borane and 16.0878 g of IsoparE are charged to a vessel, in which the air has been displaced by a nitrogen gas satisfactorily, after which the mixture is stirred for 3 hours or so at 28° C. with stirring.
After the solution is cooled to room temperature, the supernatant is analyzed in the same manner as Example 1 above using ^19F-NMR.

concentration of tris(pentafluorophenyl)borane in supernatant: 0.91 wt % | solubility with respect to IsoparE: 0.91 wt % | temperature at which completely dissolved into IsoparE (0.4963 g powders in 16.0878 g IsoparE, heated): 87 °C | purity after dissolving with heating (stability) (3 wt %): 83.0 % (area ratio) | temperature at which the solution starts to crystallize on cooling (IsoparE solution allowed to stand and cooled): 63 °C
Structure (SMILES): Fc1c(F)c(F)c(B(c2c(F)c(F)c(F)c(F)c2F)c2c(F)c(F)c(F)c(F)c2F)c(F)c1F [tris(pentafluorophenyl)borane]
dissolution into IsoparE (0.4963 g powders in 16.0878 g IsoparE, stirred 3 hours or so at 28° C.): does not dissolve into IsoparE completely
